What was measured:
[1] = test system: LNCaP cells; assay: Western blot of endogenous KChAP (899 antibody) after apoptotic stimulus; format: cell-based, human
Description: (§1) Antibodies and Western Blotting Two antibodies were used to monitor intracellular levels of KChAP protein in control and Ad/KChAP infected cells. Antibody 899 was raised against a bacterial fusion protein which consisted of the C-terminal 169 amino acids of KChAP (Wible et al, 1998; Kuryshecv et al 2000). It recognizes both endogenous and overexpressed KChAP. Antibody 088 was raised against a peptide in the N-terminus of KChAP which is not present in PIAS3 (SPSPLASIPPTLLTPGTLL-GPKREVDMH, SEQ ID NO. 3). Antibody 088 recognizes only overexpressed, not endogenous, KChAP. Affinity purified antibodies were used in Western blotting. Other antibodies used for Western blotting to detect the following proteins were obtained from commercial sources: p53 (DO-1; Santa Cruz Biotech.), STAT1, STAT3, and cyclins A, B, and D3 (Transduction Labs), actin (clone AC-40, Sigma), phospho-p53 (ser 15) (Cell Signaling Tech. Inc.), PARP (we used two antibodies interchangeably which recognize both intact and cleaved PARP; one from Cell Signaling Inc., and one from Pharmingen), monoclonal Rb (Pharmingen), and p21 (WAF1 Ab1; Oncogene Res. Pdts).
(§2) Cells were lysed in a buffer consisting of 1% Triton-X 100, 150 mM NaCl, 50 mM Tris, 1 mM EDTA, pH 7.5 containing freshly added protease inhibitors (Complete, Roche Mol. Biol.) and the phosphatase inhibitors sodium fluoride (50 mM) and sodium orthovanadate (1 mM) for 30 minutes on ice. Insoluble debris was pelleted at 20,800×g for 10 minutes at 4° C. Lysate protein concentrations were determined by the BCA method (Pierce), and aliquots were boiled in a reducing SDS sample buffer to denature protein. SDS PAGE gels were blotted to PVDF membranes using a semi-dry blotting apparatus. Blots were blocked overnight in 5% milk (Bio-Rad) in PBS-T (PBS plus 0.1% Tween-20) at 4° C. Primary antibodies diluted in blocking buffer were incubated with the blots for one hour at room temperature (RT). Blots were washed with PBS-T and incubated with HRP (horseradish peroxidase)-conjugated secondary antibodies (Amersham Pharmacia) in blocking buffer for 1 hour at RT. Blots were developed with the ECL-Plus kit (Amersham Pharmacia).
(§3) We observed an increase in the amount of endogenous KChAP detected in cells exposed to STS. […] Multiple bands are detected in both cell lysates with the 899 antibody; a 68 kD doublet which is close to the predicted molecular weight of KChAP and PIAS3 and an upper band of about 85 kD. […] The signal then drops to control levels or lower after about 6 hours in LNCaP cells and around 4 to 6 hours in Jurkat cells. This peak in immunoreactivity largely precedes detection of PARP cleavage, a marker for apoptosis. […] There was no change in the 85 kD band. […]

[2] = test system: Jurkat cells; assay: as above; format: cell-based; settings: for signal of the 68 kD KChAP doublet (899 antibody): STS 1 μM
Description: as §1, §2, §3

[3] = test system: prostate cancer cells and breast cancer cells versus cardiomyocytes; assay: Sensitivity of cancer versus non-cancerous cells to KChAP overexpression; format: cell-based

For `CC[C@@]1(O)C(=O)OCc2c1cc1n(c2=O)Cc2cc3ccccc3nc2-1` [camptothecin], the “pattern of KChAP immunoreactivity after apoptotic inducing drug” value ([1]; cell line not specified, data not shown) was “the same pattern was also obtained”.

`CN[C@@H]1C[C@H]2O[C@@](C)([C@@H]1OC)n1c3ccccc3c3c4c(c5c6ccccc6n2c5c31)C(=O)NC4` [staurosporine] was tested, and the “signal of the 68 kD KChAP doublet (899 antibody)” value (“signal of the 68 kD KChAP doublet” for short) ([1]; LNCaP, STS 1 μM) was “immunoreactivity increases”, the “time after which KChAP signal drops to control levels or lower” value ([1]; LNCaP, STS 1 μM) was “about 6 hours” and the “signal of the 68 kD KChAP doublet” value ([1]; LNCaP, STS 1 μM, listed as STS) was “increased as early as one hour after the addition of STS”. For the same molecule, the “KChAP content of Jurkat cells” value [2] was “greatly increases their KChAP content”, the “apoptosis in Jurkat cells” value [2] was “causes apoptosis” and the “signal of the 68 kD KChAP doublet” value [2] was “immunoreactivity increases”. For the same molecule, the “signal of the 68 kD KChAP doublet” value ([2]; listed as STS) was “increased as early as one hour after the addition of STS”.

B1: KChAP: potassium channel modulatory protein, human sequence SEQ ID NO:2, overexpressed in cells (protein, listed as Homo sapiens)
chain: MKIKELYRRRFPRKTLGPSDLSLLSLPPGTSPVGSPGPLAPIPPTLLAPGTLLGPKREVDMHPPLPQPVHPDVTMKPLPFYEVYGELIRPTTLASTSSQRFEEAHFTFALTPQQVQQILTSREVLPGAKCDYTIQVQLRFCLCETSCPQEDYFPPNLFVKVNGKLCPLPGYLPPTKNGAEPKRPSRPINITPLARLSATVPNTIVVNWSSEFGRNYSLSVYLVRQLTAGTLLQKLRAKGIRNPDHSRALIKEKLTADPDSEVATTSLRVSLMCPLGKMRLTVPCRALTCAHLQSFDAALYLQMNEKKPTWTCPVCDKKAPYESLIIDGLFMEILSSCSDCDEIQFMEDGSWCPMKPKKEASEVCPPPGYGLDGLQYSPVQGGDPSENKKKVEVIDLTIESSSDEEDLPPTKKHCSVTSAAIPALPGSKGVLTSGHQPSSVLRSPAMGTLGGDFLSSLPLHEYPPAFPLGADIQGLDLFSFLQTESQHYGPSVITSLDEQDALGHFFQYRGTPSHFLGPLAPTLGSSHCSATPAPPPGRVSSIVAPGGALREGHGGPLPSGPSLTGCRSDIISLD
B1 was tested, and the “sensitivity of cancer cells relative to non-cancerous cells such as cardiomyocytes” value [3] was “about ten times more sensitive”.
